Experimental data as given in article PMC10064984, “Anti-cyclooxygenase, anti-glycation, and anti-skin aging effect of Dendrobium officinale flowers’ aqueous extract and its phytochemical validation in aging” (Frontiers in Immunology, 2023).
“And” between values parts separate entries of the source, which are not always exact repeats. Equal entries are not always repeated. Where two headings read alike, the source gives them in different places.

Tests used:
COX-2 = target: T1, COX-2 (Homo sapiens, UniProt P35354); experiment: Anti-COX-2 assay (COX-2 Inhibitor Screening Kit); assay type: biochemical
T1 construct: purchased Beyotime S0168
T1 sequence (P35354 18-604): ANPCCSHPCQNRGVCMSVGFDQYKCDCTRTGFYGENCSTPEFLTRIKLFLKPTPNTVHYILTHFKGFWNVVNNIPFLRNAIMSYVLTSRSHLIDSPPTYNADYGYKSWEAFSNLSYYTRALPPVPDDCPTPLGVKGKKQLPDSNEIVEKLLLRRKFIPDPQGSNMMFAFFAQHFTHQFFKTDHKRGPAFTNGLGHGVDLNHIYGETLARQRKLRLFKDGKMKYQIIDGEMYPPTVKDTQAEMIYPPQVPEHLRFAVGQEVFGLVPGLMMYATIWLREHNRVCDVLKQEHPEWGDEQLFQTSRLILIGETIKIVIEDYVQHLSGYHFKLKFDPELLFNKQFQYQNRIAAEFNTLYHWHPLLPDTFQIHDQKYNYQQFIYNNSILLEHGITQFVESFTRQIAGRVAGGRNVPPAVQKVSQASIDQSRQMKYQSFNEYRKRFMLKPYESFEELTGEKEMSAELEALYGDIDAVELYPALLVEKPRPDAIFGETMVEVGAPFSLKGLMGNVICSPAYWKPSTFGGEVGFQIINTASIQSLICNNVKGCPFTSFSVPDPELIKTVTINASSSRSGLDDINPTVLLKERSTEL

[1] = ABTS·+ decolourisation capacity; assay type: biochemical; settings: mean ± SD, n = 3
Method in brief: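 ABTS·+ working solution in 0.2 M phosphate buffer, pH 7.4, was adjusted to A729 0.8 ± 0.05, and 100 μl was mixed with 200 μl sample; absorbance was read at 729 nm after 10 min, in triplicate. Inhibition was taken relative to a phosphate-buffer control, and IC50 was obtained graphically from dose-inhibition curves.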

[2] = FRAP total antioxidant capacity; assay type: biochemical;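 further: colourimetric FRAP kit assay read as absorbance in 96-well plates, values as mM FeSO4 via standard curve, EC1 being sample concentration matching 1.0 mmol/L FeSO4, Trolox positive control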
[3] = Online UPLC-PDA-MS-ABTS·+ scavenging (postcolumn derivatisation); settings: within DOF extract
Description: Online identification of antioxidant components of DOF extract was performed using a UPLC system (Milford, MA, USA) consisting of a Waters photodiode array detector and a Waters postcolumn derivatisation system supplying fresh ABTS solution (UPLC-PDA-QDa-ABTS). […] The detection wavelengths were set at 280 and 734 nm, and the injection volume of the sample was 10 μl.
To detect radical scavengers, the UPLC system was coupled with a Waters pump, which supplied freshly prepared ABTS·+ solution into a reaction coil (15 m, 0.25 mm ID) with a flow rate of 0.2 ml/min at 37°C. Negative peaks were recorded based on a decrease of absorbance at 729 nm after the reaction of individual compounds with the ABTS·+ radical. For preliminary identification of compounds, a Waters Acquity QDa mass detector in negative ionisation mode was connected in series to PDA with the following parameters: electrospray ion source; cone voltage, 15 V; atomiser, N2; and scanning range, 100–800 m/z.

DPPH· scavenging = assay type: biochemical; settings: mean ± SD, n = 3
[4] = Fluorescent AGEs formation in a BSA-fructose/glucose system; assay type: biochemical; settings: for inhibition of fluorescent AGEs formation (BSA-抗糖化), single replicate: individual replicate; for inhibition of fluorescent AGEs formation (BSA-抗糖化), 平均 (mean): mean of 3 replicates; for IC50: mean ± SD, n = 3, read-out: BSA-glycation IC50
Method in brief: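 BSA glycated in vitro with D-glucose and D-fructose while test samples, dissolved in DMSO:water (1:4), were present. Percent inhibition of fluorescent AGE formation calculated from fluorescence corrected for sample-only and BSA-free blanks; triplicate.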

[5] = lower part of sheet (compound series)

With `O=C(O)CC(=O)OCC1OC(Oc2c(-c3ccc(O)c(O)c3)oc3cc(O)cc(O)c3c2=O)C(O)C(O)C1O` (centres unmarked) [compound 27, Quercetin 3-O-(6″-malonyl-glucoside)] the “COX-2 inhibition (in words)” value (COX-2) was “great COX-2 inhibition”, the inhibition at 3.125 µM (COX-2; 3.125 μM, single replicates) was 24.6% and the COX-2 inhibition (COX-2; 3.125 μM, single replicates, listed as T11, 3.125 µM) was 20.59% and 27.90%. For the same compound, the COX-2 inhibition (COX-2; 6.25 μM, single replicates, listed as T11, 6.25 µM) was 14.74% and 29.06% and 32.72%, the inhibition at 12.5 µM (COX-2; 12.5 μM, single replicates) was 58.4% and the COX-2 inhibition (COX-2; 12.5 μM, single replicates, listed as T11, 12.5 µM) was 54.43% and 66.15%. The inhibition at 25 µM (COX-2; 25 μM, single replicates) was 71.8%, the COX-2 inhibition (COX-2; 25 μM, single replicates, listed as T11, 25 µM) was 72.43% and 76.32% and the inhibition at 50 µM (COX-2; 50 μM, single replicates) was 73.1%. For the same compound, the COX-2 inhibition (COX-2; 50 μM, single replicates, listed as T11, 50 µM) was 74.00% and 78.80%, the inhibition at 100 µM (COX-2; 100 μM, single replicates) was 77.6% and the COX-2 inhibition (COX-2; 100 μM, single replicates, listed as T11, 100 µM) was 75.00% and 79.64%. The inhibition at 200 µM (COX-2; 200 μM, single replicates) was 75.5%, the COX-2 inhibition (COX-2; 200 μM, single replicates, listed as T11, 200 µM) was 78.98% and 87.56% and the IC50 (COX-2; mean ± SD, n = 3, nd, not detected, read-out: COX-2 IC50) was 12.5 ± 2.9 µM. For the same compound, the IC50 (COX-2; supplement sheet COX, read-out: COX-2 IC50, single replicate) was 13.5 µM and 9.23 µM and 14.8 µM, the IC50 [1] was 28.4 ± 0.47 µM and the “FRAP EC1” value [2, 5] was 826.7 ± 98.5 µM. The “online ABTS radical scavenging (size of negative peaks at 734 nm)” value [3] was “strongest ABTS radical scavengers”, the IC50 (DPPH· scavenging) was 24.7 ± 0.96 µM and the “inhibition of fluorescent AGEs formation (BSA-抗糖化), single replicate” value (“inhibition … single replicate” below) ([4]; 15.625 µM, listed as T11, 15.625 µM) was 10.51% and 15.35% and 23.11%. The “inhibition of fluorescent AGEs formation (BSA-抗糖化), 平均 (mean)” value (shortened to “inhibition … (mean)”) ([4]; 15.625 µM) was 16.32%, the “inhibition … single replicate” value ([4]; 31.25 µM, listed as T11, 31.25 µM) was 5.08% and 5.86% and 10.67% and the “inhibition … (mean)” value ([4]; 31.25 µM) was 7.20%. The “inhibition … single replicate” value ([4]; 62.5 µM, listed as T11, 62.5 µM) was 17.13% and 15.89% and 16.80%, the “inhibition … (mean)” value ([4]; 62.5 µM) was 16.61% and the “inhibition … single replicate” value ([4]; 125 µM, listed as T11, 125 µM) was 26.98% and 29.78% and 30.07%. The “inhibition … (mean)” value ([4]; 125 µM) was 28.94%, the “inhibition … single replicate” value ([4]; 250 µM, listed as T11, 250 µM) was 45.50% and 47.09% and 47.76% and the “inhibition … (mean)” value ([4]; 250 µM) was 46.78%. For the same compound, the “inhibition … single replicate” value ([4]; 500 µM, listed as T11, 500 µM) was 61.62% and 62.32% and 63.30%, the “inhibition … (mean)” value ([4]; 500 µM) was 62.41% and the “inhibition … single replicate” value ([4]; 1000 µM, listed as T11, 1000 µM) was 77.56% and 77.94% and 77.85%. The “inhibition … (mean)” value ([4]; 1000 µM) was 77.78%, the “inhibition … single replicate” value ([4]; 2000 µM, listed as T11, 2000 µM) was 88.53% and 88.63% and 88.83% and the “inhibition … (mean)” value ([4]; 2000 µM) was 88.66%. For the same compound, the “inhibition … single replicate” value ([4]; 4000 µM (series head 'T9 4000µM', 2-fold dilutions), listed as T11) was 94.35% and 94.74% and 94.79%, the “inhibition … (mean)” value ([4]; 4000 µM) was 94.62% and the IC50 [4] was 288 ± 17.9 µM.

In the case of `C[C@@H]1O[C@@H](OC[C@H]2O[C@@H](Oc3c(-c4ccc(O)c(O)c4)oc4cc(O)cc(O)c4c3=O)[C@H](O)[C@@H](O)[C@@H]2O)[C@H](O)[C@H](O)[C@H]1O` [compound 24, Rutin], the “COX-2 inhibition (in words)” value (COX-2) is reported as “great COX-2 inhibition”, the inhibition at 3.125 µM (COX-2; 3.125 μM, single replicates) is reported as 23.1% and the COX-2 inhibition (COX-2; 3.125 μM, single replicates, listed as T3, 3.125 µM) is reported as 13.73% and 18.58%. The inhibition at 6.25 µM (COX-2; 6.25 μM, single replicates) was 42.8%, the COX-2 inhibition (COX-2; 6.25 μM, single replicates, listed as T3, 6.25 µM) was 37.16% and the COX-2 inhibition (COX-2; 12.5 μM, single replicates, listed as T3, 12.5 µM) was 68.24% and 51.05% and 71.69%. The inhibition at 25 µM (COX-2; 25 μM, single replicates) was 78%, the COX-2 inhibition (COX-2; 25 μM, single replicates, listed as T3, 25 µM) was 72.08% and 76.61% and the inhibition at 50 µM (COX-2; 50 μM, single replicates) was 81.2%. For the same compound, the COX-2 inhibition (COX-2; 50 μM, single replicates, listed as T3, 50 µM) was 77.16% and 78.42%, the inhibition at 100 µM (COX-2; 100 μM, single replicates) was 81.5% and the COX-2 inhibition (COX-2; 100 μM, single replicates, listed as T3, 100 µM) was 79.28% and 81.06%. For the same compound, the inhibition at 200 µM (COX-2; 200 μM, single replicates) was 84.3%, the COX-2 inhibition (COX-2; 200 μM, single replicates, listed as T3, 200 µM) was 81.14% and 83.16% and the IC50 [1] was 33.1 ± 0.37 µM. The “FRAP EC1” value [2, 5] was 205.0 ± 12.2 µM, the “FRAP EC1” value ([2]; mean ± SD, n = 3) was 205.0 ± 12.2 µM and the “online ABTS radical scavenging (size of negative peaks at 734 nm)” value [3] was “strongest ABTS radical scavengers”. It also gave an IC50 (DPPH· scavenging) of 43.3 ± 1.75 µM and an IC50 [4] of 222 ± 13.5 µM.
